Source: article PMC6586847, “ATP binds and inhibits the neurodegeneration-associated fibrillization of the FUS RRM domain” (Communications Biology, 2019)

Target: T1, FUS RRM domain (Homo sapiens, UniProt P35637)
T1 construct: RRM domain (285–370)
T1 sequence (P35637 284-371 limits assumed): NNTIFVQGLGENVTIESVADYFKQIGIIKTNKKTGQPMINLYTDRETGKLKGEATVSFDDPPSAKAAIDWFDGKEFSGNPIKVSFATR
Assay: 1H-15N HSQC NMR titration, one-site fit of chemical shift differences
Format: binding

SMILES	Kd [mM]
Nc1ncnc2c1ncn2[C@@H]1O[C@H](COP(=O)(O)O)[C@@H](O)[C@H]1O [AMP]	17.2 ± 2.61
Nc1ncnc2c1ncn2[C@@H]1O[C@H](COP(=O)(O)OP(=O)(O)OP(=O)(O)O)[C@@H](O)[C@H]1O [ATP]	3.77 ± 0.49
O=P(O)(O)OP(=O)(O)OP(=O)(O)O [PPP]	12.6 ± 3.53
